Patent publication US11464824B2, “Peptide capable of improving cognitive function” (THE FOOD SCIENCE INSTITUTE FOUNDATION, priority 2018, dated 2022)

Experiments:
[1] = reported in NPL 4; cited from earlier work
[2] = tested on: male dd Y mice fed a 60% high-fat diet; assay: Spatial memory evaluation test: object location test (OLT); format: in vivo; conditions: YLG 10 mg/kg/day oral for 1 week, test on day 7, FIG. 4
Protocol: (§1) Four-week-old male dd Y mice were divided into 3 groups (8 mice per group). The mice were reared for 1 week such that Group 1 was fed a normal diet (3.85 kcal/g: 20 kcal % of protein, 70 kcal % of carbohydrate, and 10 kcal % of lipid), and Group 2 and Group 3 were fed a 60% high-fat diet (5.24 kcal/g: 20 kcal % of protein, 20 kcal % of carbohydrate, and 60 kcal % of lipid). During the period, the YLG tripeptide was orally administered to Group 3 daily in an amount of 10 mg/kg/day.
(§2) On day 6 and day 7 after the initiation of feeding, two behavioral tests (episodic memory evaluation test: object recognition test (ORT), and a spatial memory evaluation test: object location test (OLT)), which are known as cognitive function evaluation systems, were performed, as well as a hippocampal neurogenesis evaluation test using deoxyuridine bromide (BrdU). On day 7, the brain hippocampus was removed, and a BDNF mRNA expression level in the hippocampus was measured.
The OLT is a behavioral test that evaluates spatial memory, which is part of cognitive functions. […] The difference lies in that the location of only one object is changed in Trial 2. […] The cognitive function of the mice was evaluated using the ratio of the approach time for the object placed at the novel location to the total approach time for both objects as an index. […]

[3] = tested on: male dd Y mice fed a 60% high-fat diet; assay: Glucose tolerance test; format: in vivo; conditions: YLG 10 mg/kg/day oral; for blood glucose level in the glucose tolerance test (relative value, level immediately before glucose = 100): day 7
Protocol: as §1, with “Twelve-week-old” for “Four-week-old”, “(n=8).” for “(8 mice per group).”, “peptide” for “tripeptide”
On day 7 after the initiation of feeding, glucose (2 g/kg/p.o.) was administered after fasting for 5 hours. The administration of the YLG peptide on day 7 was performed 2 hours before the glucose administration. Blood was collected from the tail vein immediately before the glucose administration, and 15 minutes, 30 minutes, and 60 minutes after the administration to measure the blood glucose level using a glucose sensor (Nipro Corporation).
(§3) Tables 1 and 2 show changes in blood glucose level in the glucose tolerance test and changes in blood glucose level in the insulin tolerance test, respectively. The numerical values shown in each table are relative values, taking the blood glucose level immediately before the administration of glucose or insulin as 100.

[4] = tested on: BrdU-positive cells in the hippocampal dentate gyrus; assay: Hippocampal neurogenesis evaluation test using deoxyuridine bromide (BrdU); format: in vivo; conditions: high-fat diet mice, YLG 10 mg/kg/day oral, day 7; FIG. 5
Protocol: as §1, §2
On day 6 after the initiation of feeding, 100 mg/kg of deoxyuridine bromide (BrdU) was intraperitoneally administered to the mice of each group (n=4), and after 24 hours (day 7), perfusion fixation was performed using 4% paraformaldehyde. Next, the whole brain was extracted and frozen to prepare frozen sections on a cryostat. […]

[5] = tested on: male dd Y mice fed a 60% high-fat diet; assay: Insulin tolerance test; format: in vivo; conditions: YLG 10 mg/kg/day oral; for blood glucose level in the insulin tolerance test (relative value, level immediately before insulin = 100): day 7
Protocol: As in the glucose tolerance test, twelve-week-old male dd Y mice were divided into 3 groups (n=6-7), and the mice were reared for 1 week such that Group 1 was fed a normal diet, and Group 2 and Group 3 were fed a 60% high-fat diet. During the period, the YLG peptide was orally administered to Group 3 daily in an amount of 10 mg/kg/day. On day 7 after the initiation of feeding, insulin (0.5 U/kg/i.p.) was administered after fasting for 5 hours. The administration of the YLG peptide on day 7 was performed 2 hours before the insulin administration. Blood was collected from the tail vein immediately before insulin administration, and 15 minutes, 30 minutes, and 60 minutes after the administration to measure the blood glucose level using a glucose sensor (Nipro Corporation).
as §3

[6] = tested on: BDNF mRNA expression in the hippocampus; assay: Brain-derived neurotrophic factor (BDNF) mRNA expression measurement test; format: in vivo; conditions: high-fat diet mice, YLG 10 mg/kg/day oral, day 7, RT-PCR, standardized with β-actin mRNA; FIG. 6
Protocol: as §1, §2
On day 7 after the initiation of feeding, the mice in each group (n=8) were dissected under anesthesia, and the hippocampus was removed from the brain. The removed hippocampus was stored in RNA later for RNA extraction. […] Then, the brain-derived neurotrophic factor (BDNF) mRNA expression level in the hippocampus was measured by RT-PCR according to a standard method. […]

[7] = tested on: male dd Y mice fed a 60% high-fat diet; assay: Episodic memory evaluation test: object recognition test (ORT); format: in vivo; conditions: YLG 10 mg/kg/day oral for 1 week, test on day 7, FIG. 2
Protocol: as §1, §2
The ORT is a behavioral test that evaluates episodic memory, which is part of cognitive functions. […] First, the mouse was placed in a square open field for 5 minutes for habituation. […] In Trial 2, the approach time of the mouse for each object was measured. […] The cognitive function of the mice was evaluated using the ratio of the approach time for the novel object to the total approach time for both objects as an index. […]

## Tyr-Leu-Gly [YLG peptide]
[1]
  anxiolytic effect: anxiolytic effect
[2]
  ratio of the approach time for the object placed at the novel location to the total approach time for both objects (OLT, spatial memory): recovered to a level equal to that of the normal diet group
[3]; 15 min after glucose 2 g/kg p.o.
  blood glucose level in the glucose tolerance test (relative value, level immediately before glucose = 100): 190 ± 14
[3]; 30 min after glucose 2 g/kg p.o.
  blood glucose level in the glucose tolerance test (relative value, level immediately before glucose = 100): 169 ± 10
[3]; 60 min after glucose 2 g/kg p.o.
  blood glucose level in the glucose tolerance test (relative value, level immediately before glucose = 100): 113 ± 5
[3]
  effect on the increase in blood glucose level caused by high-fat diet intake (glucose tolerance test, in words): prevented the increase in blood glucose level
[4]
  number of BrdU-positive cells in the hippocampal dentate gyrus (hippocampal neurogenesis): recovered to a level equal to that of the normal diet group
[5]; 15 min after insulin 0.5 U/kg i.p.
  blood glucose level in the insulin tolerance test (relative value, level immediately before insulin = 100): 90 ± 2
[5]; 30 min after insulin 0.5 U/kg i.p.
  blood glucose level in the insulin tolerance test (relative value, level immediately before insulin = 100): 78 ± 3
[5]; 60 min after insulin 0.5 U/kg i.p.
  blood glucose level in the insulin tolerance test (relative value, level immediately before insulin = 100): 70 ± 4
[5]
  effect on insulin resistance induced by the high-fat diet (glucose and insulin tolerance tests, in words): improved insulin resistance induced by the high-fat diet
[6]
  BDNF mRNA expression level in the hippocampus: recovered to a level equal to or even greater than that of the normal diet group
[7]
  ratio of the approach time for the novel object to the total approach time for both objects (ORT, episodic memory): recovered to a level equal to that of the normal diet group
